Where a name gives a salt, the structure may show the parent alone.
Biological target: T1, IDO1 (Homo sapiens, UniProt P14902)
Assay: IDO1 Cellular Assay in Hela Cells Stimulated with IFNγ
Type: cell-based
Set-up: endogenous in cells; host or cells: HeLa cells stimulated with IFNγ
Settings: IFNγ 100 ng/mL, 300 uM L-tryptophan, about 48 hours, fluorescence readout, read-out: IDO1 HELA Cell Assay, IC50
Protocol: Biological Assays IDO1 Cellular Assay in Hela Cells Stimulated with IFNγ
Hela cells were cultured in complete Hela culture medium (90% EMEM, 10% heat-inactivated fetal bovine serum) and expanded to about 1×10^9 cells. The cells were then collected and frozen down at 1×10^7 cells/vial in 1 mL frozen medium (90% complete Hela culture medium, 10% DMSO)
Compounds to be tested were serially diluted in ten 3-fold steps in DMSO starting from 10 mM DMSO stocks in Echo low volume plate(s). Compound dilutions or DMSO alone were then dispensed from the dilution plate(s) into Greiner black 384-well assay plate(s) (catalog #781086, 50 nL/well) using an Echo 550 acoustic liquid handler (Labcyte).
Frozen Hela cells were thawed and transferred into Hela assay medium (99% complete Hela culture medium, 1% Pen/Strep) with 20 mL medium/vial of cells. The cells were spun down at 250 g in a table top centrifuge for 5 min and suspended in same volume of Hela assay medium. The cells were then counted and adjusted to a density of 2×10^5 cells/ml in Hela assay medium. Sterile L-tryptophan were added to the cells with final concentration of 300 uM L-tryptophan. A small aliquot (2 mL/plate) of Hela cells were set aside and were not treated with IFNγ, to serve as the Max-E control. The rest of Hela cells were added with sterile IFNγ (Cat #285-IF, R & D systems) with a final concentration of 100 ng/mL.
Hela cells with and without IFNγ were dispensed to the respective wells of 384-well assay plates containing the compounds. The plates were incubated for about 48 hours at a 37° C., 5% CO2 incubator. Afterwards, 12 μL of 0.5 M methyl isonipecotate in dimethyl sulfoxide were added into each well and the plates were sealed and incubated at 37° C. without CO2 overnight. The plates were centrifuged for 1 min at 200×g. The resulting fluorescence was measured in a Spectramax plate reader (Molecular Devices) with a 400 nm excitation filter and a 510 nm emission filter.
The fluorescence intensity of each well was corrected for the background observed in wells with non-IFNγ-treated cells and was expressed as a fraction of the intensity observed in wells of IFNγ-treated cells and DMSO only. Potencies were calculated by linear least squares fit to the four parameter logistic IC50 equation.
Compounds disclosed herein generally have IC50 of about 1 nM to about 1,000 nM, or more specifically, about 2 nM to about 800 nM, or more specifically, about 5 nM to about 600 nM, or still more specifically, about 10 nM to about 500 nM. Such a result is indicative of the intrinsic activity of the compounds in use as an inhibitor of an IDO enzyme.

T1 sequence (P14902 whole entry): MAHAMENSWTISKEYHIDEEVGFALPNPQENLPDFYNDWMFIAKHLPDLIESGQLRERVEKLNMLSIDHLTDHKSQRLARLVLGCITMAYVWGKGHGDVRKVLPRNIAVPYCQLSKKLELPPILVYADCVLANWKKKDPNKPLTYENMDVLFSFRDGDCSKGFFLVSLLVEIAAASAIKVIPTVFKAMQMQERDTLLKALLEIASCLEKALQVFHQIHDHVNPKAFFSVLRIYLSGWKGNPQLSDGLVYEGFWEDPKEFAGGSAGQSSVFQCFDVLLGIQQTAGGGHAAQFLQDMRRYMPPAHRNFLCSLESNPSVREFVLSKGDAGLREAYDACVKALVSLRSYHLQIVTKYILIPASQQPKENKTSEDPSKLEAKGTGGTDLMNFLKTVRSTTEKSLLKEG

Row | SMILES | IC50
1 | CC(C(=O)Nc1ccc(F)cc1)C12CC(Nc3ncnc4ccccc34)(C1)C2 (single isomer, unassigned) [Example 5, N-(4-fluorophenyl)-2-(3-(quinazolin-4-ylamino)bicyclo[1.1.1]pentan-1-yl)propanamide] | 5.38 nM
2 | CC(C(=O)Nc1ccc(F)cc1)C12CC(Nc3ncnc4ccc(F)cc34)(C1)C2 (single isomer, unassigned) [Example 11, N-(4-fluorophenyl)-2-(3-((6-fluoroquinazolin-4-yl)amino)bicyclo[1.1.1]pentan-1-yl)propanamide] | 3.23 nM
3 | CC(C(=O)Nc1ccc(F)cc1)C12CC(Nc3nccc(C(F)(F)F)c3C#N)(C1)C2 (stereo not shown) [Example 17, 2-(3-{[3-cyano-4-(trifluoromethyl)pyridin-2-yl]amino}bicyclo[1.1.1]pentan-1-yl)-N-(4-fluorophenyl]propanamide] | 27.2 nM
4 | CC(C(=O)Nc1ccc(F)cc1)C12CC(Nc3cc(C(F)(F)F)ccn3)(C1)C2 (stereo not shown) [Example 18, N-(4-fluorophenyl)-2-(3-{[4-(trifluoromethyl)pyridin-2-yl]amino}bicyclo[1.1.1]pentan-1-yl)propanamide] | 173 nM
5 | CC(C(=O)Nc1ccc(F)cc1)C12CC(Nc3c(C(F)(F)F)ccnc3F)(C1)C2 (stereo not shown) [Example 19, N-(4-fluorophenyl)-2-(3-{[2-fluoro-4-(trifluoromethyl)pyridin-3-yl]amino}bicyclo[1.1.1]pentan-1-yl)propanamide] | 11.9 nM
6 | CC(C(=O)Nc1ccc(F)cc1)C12CC(Nc3ncccc3C(F)(F)F)(C1)C2 (stereo not shown) [Example 20, N-(4-fluorophenyl)-2-(3-{[3-(trifluoromethyl)pyridin-2-yl]amino}bicyclo[1.1.1]pentan-1-yl)propanamide] | 543 nM
7 | CC(C(=O)Nc1ccc(F)cc1)C12CC(Nc3nccnc3C(F)(F)F)(C1)C2 (stereo not shown) [Example 21, N-(4-fluorophenyl)-2-(3-{[3-(trifluoromethyl)pyrazin-2-yl]amino}bicyclo[1.1.1]pentan-1-yl)propanamide] | 454 nM
8 | CC(C(=O)Nc1ccc(F)cc1)C12CC(Nc3ncc(C(F)(F)F)cc3F)(C1)C2 (stereo not shown) [Example 22, N-(4-fluorophenyl)-2-(3-{[3-fluoro-5-(trifluoromethyl)pyridin-2-yl]amino}bicyclo[1.1.1]pentan-1-yl)propanamide] | 166 nM
9 | CC(C(=O)Nc1ccc(F)cc1)C12CC(Nc3nncc4ccccc34)(C1)C2 (stereo not shown) [Example 23, N-(4-fluorophenyl)-2-{3-[(phthalazin-1-yl)amino]bicyclo[1.1.1]pentan-1-yl}propanamide] | 183 nM
10 | CC(C(=O)Nc1ccc(F)cc1)C12CC(Nc3ccnc(C(F)(F)F)c3)(C1)C2 (stereo not shown) [Example 24, N-(4-fluorophenyl)-2-(3-{[2-(trifluoromethyl)pyridin-4-yl]amino}bicyclo[1.1.1]pentan-1-yl)propanamide] | 12.6 nM

More lines, now with the values ahead:

Row | IC50 | SMILES
11 | 94.1 nM | CC(C(=O)Nc1ccc(F)cc1)C12CC(Nc3ccnc(C(F)(F)F)n3)(C1)C2 (stereo not shown) [Example 25, N-(4-fluorophenyl)-2-(3-{[2-(trifluoromethyl)pyrimidin-4-yl]amino}bicyclo[1.1.1]pentan-1-yl)propanamide]
12 | 74.3 nM | CC(C(=O)Nc1ccc(F)cc1)C12CC(Nc3cccc(C(F)(F)F)n3)(C1)C2 (stereo not shown) [Example 26, N-(4-fluorophenyl)-2-(3-{[6-(trifluoromethyl)pyridin-2-yl]amino}bicyclo[1.1.1]pentan-1-yl)propanamide]
13 | 4.83 nM | C[C@H](C(=O)Nc1ccc(F)cc1)C12CC(Nc3ccnc(C(F)(F)F)c3)(C1)C2 [Example 27, (S)—N-(4-fluorophenyl)-2-(3-((2-(trifluoromethyl)pyridin-4-yl)amino)bicyclo[1.1.1]pentan-1-yl)propanamide]
14 | 25.7 nM | C[C@H](C(=O)Nc1ccc(F)cc1)C12CC(NCc3cccc(Cl)c3)(C1)C2 [Example 28, (S)-2-(3-((3-chlorobenzyl)amino)bicyclo[1.1.1]pentan-1-yl)-N-(4-fluorophenyl)propanamide, TFA]
15 | 5.6 nM | C[C@H](C(=O)Nc1ccc(F)cc1)C12CC(N(C)Cc3cccc(Cl)c3)(C1)C2 [Example 29, (S)-2-(3-((3-chlorobenzyl)(methyl)amino)bicyclo[1.1.1]pentan-1-yl)-N-(4-fluorophenyl)propanamide, TFA]
16 | 82.3 nM | C[C@H](C(=O)Nc1ccc(F)cc1)C12CC(NCc3cccc(C(F)(F)F)c3)(C1)C2 [Example 30, (S)-N-(4-fluorophenyl)-2-(3-((3-(trifluoromethyl)benzyl)amino)bicyclo[1.1.1]pentan-1-yl)propanamide, TFA]
17 | 15.1 nM | C[C@H](C(=O)Nc1ccc(F)cc1)C12CC(N(C)Cc3cccc(C(F)(F)F)c3)(C1)C2 [Example 31, (S)-N-(4-fluorophenyl)-2-(3-(methyl(3-(trifluoromethyl)benzyl)amino)bicyclo[1.1.1]pentan-1-yl)propanamide, TFA]
18 | 51.3 nM | C[C@H](C(=O)Nc1ccc(F)cc1)C12CC(NCc3ccc(Cl)c(Cl)c3)(C1)C2 [Example 32, (S)-2-(3-((3,4-dichlorobenzyl)amino)bicyclo[1.1.1]pentan-1-yl)-N-(4-fluorophenyl)propanamide, TFA]
19 | 8.86 nM | C[C@H](C(=O)Nc1ccc(F)cc1)C12CC(N(C)Cc3ccc(Cl)c(Cl)c3)(C1)C2 [Example 33, (S)-2-(3-((3,4-dichlorobenzyl)(methyl)amino)bicyclo[1.1.1]pentan-1-yl)-N-(4-fluorophenyl)propanamide, TFA]

Biological target: T1, IDO1
Assay: IDO1 Human Whole Blood Assay
Type: cell-based
Settings: LPS and IFNγ 100 ng/mL, 18 h, kynurenine by LC/MS/MS
Protocol: IDO1 Human Whole Blood Assay
Compounds to be tested were serially diluted in ten 3-fold steps in DMSO starting from 10 mM. 3 μL of compound dilutions or DMSO alone were then dispensed from the dilution plate into a polypropylene 96-well assay plate containing 97 μL of RPMI medium using an Echo 555 acoustic liquid handler (Labcyte). LPS and IFNγ was prepared in RPMI medium to a 10× of final conc. (1000 ng/mL), final concentration is 100 ng/mL.
Two hundred forty μL of blood was transferred to each of the wells of a v-bottom 96 well plate. Thirty μL of compound was transferred from intermediate dilution plate, and incubated for 15 min. Thirty μL from stimulants was then transferred to blood and mixed thoroughly. Plate was covered with breathable membrane and incubated at 37° C. for overnight (18 h).
On day 2 isotope labeled standard of kynurenine and tryptophan was made in water at 10× concentration and 30 μL was added to the blood at 3 μM final concentration. The assay plates were centrifuged at 300×G for 10 min with no brake to separate plasma from red blood cells. Sixty μL of plasma samples was removed without disturbing red blood cells. Plasma was diluted with RPMI in 1:1 ratio and proteins were precipitated out with two volume of acetonitrile. The plates were centrifuged at 4000×G for 60 min. Twenty μL of supernatant was carefully transferred to a 384 well plate containing 40 μL of 0.1% formic acid in water and analyzed by LC/MS/MS.
LC/MS/MS analyses were performed using Thermo Fisher's LX4-TSQ Quantum Ultra system. This system consists of four Agilent binary high-performance liquid chromatography (HPLC) pumps and a TSQ Quantum Ultra triple quadruple MS/MS instrument. For each sample, 5 μL were injected onto an Atlantis T3 column (2.1 mm×150 mm, 3 μm particle size) from Waters. The mobile phase gradient pumped at 0.8 mL/min was used to elute the analytes from the column at 25° C. […] Compounds were titrated and IC50's were calculated by 4 parameter sigmoidal curve fitting formula. […]

Row | IC50 | SMILES
20 | 543 nM | CC(C(=O)Nc1ccc(F)cc1)C12CC(Nc3ncnc4ccccc34)(C1)C2 (single isomer, unassigned) [Example 5, N-(4-fluorophenyl)-2-(3-(quinazolin-4-ylamino)bicyclo[1.1.1]pentan-1-yl)propanamide]
21 | 378 nM | CC(C(=O)Nc1ccc(F)cc1)C12CC(Nc3ncnc4ccc(F)cc34)(C1)C2 (single isomer, unassigned) [Example 11, N-(4-fluorophenyl)-2-(3-((6-fluoroquinazolin-4-yl)amino)bicyclo[1.1.1]pentan-1-yl)propanamide]
22 | 625 nM | C[C@H](C(=O)Nc1ccc(F)cc1)C12CC(N(C)Cc3cccc(Cl)c3)(C1)C2 [Example 29, (S)-2-(3-((3-chlorobenzyl)(methyl)amino)bicyclo[1.1.1]pentan-1-yl)-N-(4-fluorophenyl)propanamide, TFA]
